Measured values reported in patent US7335669B2, “Use of dihydroquinoline to aid in increasing milk production and feed utilization” (Novus International, Inc., priority 2002, dated 2008).

Tests used:
cows = assay: Example 1: two-week feeding regimen at four ethoxyquin concentration levels, twenty-four cows; type: in vivo
Excerpt: Each of twenty-four cows was randomly assigned to a feeding regimen of one of four concentration levels of ethoxyquin (0 ppm, 50 ppm, 100 ppm, and 150 ppm by weight on an as fed basis) for a two-week treatment period. Data were collected before and after the feeding regimen. The results were as follows, wherein the ethoxyquin concentration (“Ethox. Dose”) is presented in ppm by weight, on an as fed basis and “TMR” represents the total mixed ration consumed by the cows in pounds per day: […]

lactating dairy cows = assay: Example 2: switch-over pen trial, ethoxyquin 65 ppm in feed for three weeks, approximately 2400 lactating dairy cows; type: in vivo
Excerpt: Approximately 2400 lactating dairy cows were divided into two treatment groups of four pens per group. The cows in one of the two groups were fed ethoxyquin (at a concentration of 65 ppm by weight based on the weight of the total feed fed to the cows) for three weeks, with the four pens of the other group serving as controls. For the next two weeks, neither of the groups was fed ethoxyquin. The pens were then switched so that the previous control group was fed ethoxyquin (at a concentration of 65 ppm by weight based on the weight of the total feed fed to the cows) for three weeks. Milk production and feed intake were measured and feed efficiencies were calculated. The following table reports the means and pooled SEM results after correction for pen effects (wherein “Treated” refers to the cows receiving the ethoxyquin): […]

[1] = Detection of ethoxyquin in milk from cattle treated by the method; type: in vivo
Excerpt: Of course, measurement of chemical levels has limitations. […] In any event, the level of ethoxyquin in the milk produced according to this invention certainly is less than 0.1 ppm by weight.

[2] = about 125 to about 150 ppm by weight on DMI basis in diet of dairy cattle; cited from earlier work
broilers and layers = details: cited from earlier work
[3] = poultry and lambs, dietary ethoxyquin; cited from earlier work
[4] = ethoxyquin 50 ppm by weight as fed basis
[5] = ethoxyquin 100 ppm as fed basis
[6] = ethoxyquin 100 ppm by weight as fed basis
[7] = ethoxyquin 150 ppm as fed basis
[8] = ethoxyquin 150 ppm by weight as fed basis
[9] = ethoxyquin 65 ppm by weight of total feed, three weeks, mean after correction for pen effects

Ethoxyquin detected in milk ([1]; milk from cattle treated by the method of the invention): no ethoxyquin has been detected
Level of ethoxyquin in the milk ([1]; milk produced according to the invention): less than 0.1 ppm by weight
Structure (SMILES): CCOc1ccc2c(c1)C(C)=CC(C)(C)N2 [ethoxyquin, 6-ethoxy-1,2-dihydro-2,2,4-trimethylquinoline]
Enhancement of milk production, comparison of concentrations (cows; 50 ppm vs 150 ppm by weight, as fed basis): 50 ppm has yielded greater enhancement of milk production than has 150 ppm
Feed Intake (as fed basis), TMR in First Week (cows; ethoxyquin 50 ppm as fed basis): 91 pounds per day
Milk Production Based on Feed Efficiency, Lbs. Milk / TMR in First Week (cows; ethoxyquin 50 ppm as fed basis): 0.87 lbs. Milk Produced/pounds TMR Intake
Feed Intake (as fed basis), TMR in Second Week (cows; ethoxyquin 50 ppm as fed basis): 91 pounds per day
Milk Production Based on Feed Efficiency, Lbs. Milk / TMR in Second Week (cows; ethoxyquin 50 ppm as fed basis): 0.91 lbs. Milk Produced/pounds TMR Intake
Milk Produced During First Week (cows; [4]): 79 lbs./day
Milk Produced During Second Week (cows; [4]): 82 lbs./day
Feed Intake (as fed basis), TMR in First Week (cows; [5]): 92 pounds per day
Milk Production Based on Feed Efficiency, Lbs. Milk / TMR in First Week (cows; [5]): 0.80 lbs. Milk Produced/pounds TMR Intake
Feed Intake (as fed basis), TMR in Second Week (cows; [5]): 91 pounds per day
Milk Production Based on Feed Efficiency, Lbs. Milk / TMR in Second Week (cows; [5]): 0.79 lbs. Milk Produced/pounds TMR Intake
Milk Produced During First Week (cows; [6]): 74 lbs./day
Milk Produced During Second Week (cows; [6]): 72 lbs./day
Feed Intake (as fed basis), TMR in First Week (cows; [7]): 92 pounds per day
Milk Production Based on Feed Efficiency, Lbs. Milk / TMR in First Week (cows; [7]): 0.76 lbs. Milk Produced/pounds TMR Intake
Feed Intake (as fed basis), TMR in Second Week (cows; [7]): 92 pounds per day
Milk Production Based on Feed Efficiency, Lbs. Milk / TMR in Second Week (cows; [7]): 0.80 lbs. Milk Produced/pounds TMR Intake
Milk Produced During First Week (cows; [8]): 70 lbs./day
Milk Produced During Second Week (cows; [8]): 74 lbs./day
Difference in milk production, treated vs control (lactating dairy cows; ethoxyquin 65 ppm): little difference in milk production
Feed Efficiency As Fed Basis (lactating dairy cows; ethoxyquin 65 ppm by weight of total feed, three weeks, calculated from milk production and feed intake): 0.89
Feed Intake As Fed Basis (lactating dairy cows; [9]): 93.5 lbs./day
Feed Intake DMI Basis (lactating dairy cows; [9]): 60.3 lbs./day
Milk Production (lactating dairy cows; [9]): 83.4 lbs./day
Improvement in feed efficiency (pounds of milk produced per pounds of TMR intake) (lactating dairy cows; ethoxyquin 65 ppm vs control, printed as on a dry matter basis): 4.7%
Ethoxyquin residue in milk [2]: appearance of ethoxyquin in the fat of the resulting milk
Effectiveness relative to alpha-tocopherol acetate (broilers and layers; broiler study, 150 ppm ethoxyquin in feed): as effective as about 15 ppm alpha-tocopherol acetate
Lipid oxidation in muscle tissues (broilers and layers; dietary ethoxyquin, broilers 75 to 150 ppm, layers 500 ppm in feed): prevent lipid oxidation in muscle tissues in broilers and layers
Ethoxyquin in muscle tissue [3]: detected in the muscle tissue of poultry and lambs
